pIC50: −log10 of the molar value.
Legend:
[1] = system: murine B cells; experiment: Murine B cell activation: CD86 expression on CD19 positive B cells after anti-IgM stimulation; assay type: cell-based; details: Balb/c mouse splenocytes, anti-IgM 30 μg/ml, 24 hours, read-out: mCD86/ IC50 CD86
Experimental: PI3Kδ has been recognized to modulate B cell function when cells are stimulated through the B cell receptor (BCR) (Okkenhaug et al. Science 297:1031 (2002). For assessing the inhibitory property of compounds on B cell activation, the upregulation of activation markers CD86 and CD69 on murine B cells derived from mouse spleen […] is measured after stimulation with anti-IgM. CD69 is a well known activation marker for B and T cells (Sancho et al. Trends Immunol. 26:136 (2005). CD86 (also known as B7-2) is primarily expressed on antigen-presenting cells, including B cells. Resting B cells express CD86 at low levels, but upregulate it following stimulation of e.g. the BCR or IL-4 receptor. CD86 on a B cell interacts with CD28 on T cells. This interaction is required for optimal T cell activation and for the generation of an optimal IgG1 response (Carreno et al. Annu Rev Immunol. 20:29 (2002)).
Spleens from Balb/c mice were collected, splenocytes were isolated and washed twice with RPMI containing 10% foetal bovine serum (FBS), 10 mM HEPES, 100 Units/ml penicilline/streptomycine. RPMI supplemented in this way is subsequently referred to as medium. The cells were adjusted to 2.5×10^6 cells/ml in medium and 200 μl cell suspension ([…]) were added to the appropriate wells of 96 well plates.
Then the cells were stimulated by adding 50 μl anti-IgM mAb in medium (final concentration: 30 μg/ml). After incubation for 24 hours at 37° C., the cells were stained with the following antibody cocktails: anti-mouse CD86-FITC, anti-mouse CD69-PerCP-Cy5.5, anti-mouse CD19-PerCP for the assessment of B cells, and anti-mouse CD3-FITC, anti-mouse CD69-PE for the assessment of T cells (2 μl of each antibody/well). After one hour at room temperature (RT) in the dark the cells were transferred to 96 Deepwell plates. The cells were washed once with 1 ml PBS containing 2% FBS and after re-suspension in 200 μl the samples were analyzed on a FACS Calibur flow cytometer. Lymphocytes were gated in the FSC/SSC dot plot according to size and granularity and further analyzed for expression of CD19, CD3 and activation markers (CD86, CD69). Data were calculated from dot blots as percentage of cells positively stained for activation markers within the CD19+ or CD3+ population using BD CellQest Software.
For assessing the inhibitory property of compounds, compounds were first dissolved and diluted in DMSO followed by a 1:50 dilution in medium. Splenocytes from Balb/c mice were isolated, re-suspended and transfered to 96 well plates as described above (200 μl/well). The diluted compounds or solvent were added to the plates (25 μl) and incubated at 37° C. for 1 hour. Then the cultures were stimulated with 25 μl anti-IgM mAb/well (final concentration 30 μg/ml) for 24 hours at 37° C. and stained with anti-mouse CD86-FITC and anti-mouse CD19-PerCP (2 μl of each antibody/well). CD86 expression on CD19 positive B cells was quantified by flow cytometry as described above.

[2] = biological target: T1, PI3K alpha (Homo sapiens, UniProt P42336); experiment: Enzymatic PI3K alpha isoform inhibition (lipid kinase activity, Kinase-Glo); assay type: biochemical; details: enzymatic assay
T1 construct: for the p110-a subunit (with a deletion of the first 20 amino acids) are generated; His tag (C); made in house; host or cells: baculovirus BV1075; Tn5 (Trichoplusia ni) or TiniPro insect cells
Summary of the method: (§1)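 Reactions were started with ATP (2 μM solution) after the enzyme (10 nM solution) and phosphatidylinositol substrate (5 μg/ml solution) were added to the DMSO-dissolved compounds.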

[3] = biological target: T2, PI3K delta (Homo sapiens, UniProt O00329); experiment: Enzymatic PI3K delta isoform inhibition (lipid kinase activity, Kinase-Glo); assay type: biochemical; details: enzymatic assay
T2 construct: for the full-length p110-d subunit are generated and fused by overlapping PCR; His tag (C); made in house; host or cells: baculovirus BV1060; Tn5 (Trichoplusia ni) or TiniPro insect cells
Summary of the method: as §1

T1 sequence (P42336 with tags, fused parts or gaps limits assumed, species assumed): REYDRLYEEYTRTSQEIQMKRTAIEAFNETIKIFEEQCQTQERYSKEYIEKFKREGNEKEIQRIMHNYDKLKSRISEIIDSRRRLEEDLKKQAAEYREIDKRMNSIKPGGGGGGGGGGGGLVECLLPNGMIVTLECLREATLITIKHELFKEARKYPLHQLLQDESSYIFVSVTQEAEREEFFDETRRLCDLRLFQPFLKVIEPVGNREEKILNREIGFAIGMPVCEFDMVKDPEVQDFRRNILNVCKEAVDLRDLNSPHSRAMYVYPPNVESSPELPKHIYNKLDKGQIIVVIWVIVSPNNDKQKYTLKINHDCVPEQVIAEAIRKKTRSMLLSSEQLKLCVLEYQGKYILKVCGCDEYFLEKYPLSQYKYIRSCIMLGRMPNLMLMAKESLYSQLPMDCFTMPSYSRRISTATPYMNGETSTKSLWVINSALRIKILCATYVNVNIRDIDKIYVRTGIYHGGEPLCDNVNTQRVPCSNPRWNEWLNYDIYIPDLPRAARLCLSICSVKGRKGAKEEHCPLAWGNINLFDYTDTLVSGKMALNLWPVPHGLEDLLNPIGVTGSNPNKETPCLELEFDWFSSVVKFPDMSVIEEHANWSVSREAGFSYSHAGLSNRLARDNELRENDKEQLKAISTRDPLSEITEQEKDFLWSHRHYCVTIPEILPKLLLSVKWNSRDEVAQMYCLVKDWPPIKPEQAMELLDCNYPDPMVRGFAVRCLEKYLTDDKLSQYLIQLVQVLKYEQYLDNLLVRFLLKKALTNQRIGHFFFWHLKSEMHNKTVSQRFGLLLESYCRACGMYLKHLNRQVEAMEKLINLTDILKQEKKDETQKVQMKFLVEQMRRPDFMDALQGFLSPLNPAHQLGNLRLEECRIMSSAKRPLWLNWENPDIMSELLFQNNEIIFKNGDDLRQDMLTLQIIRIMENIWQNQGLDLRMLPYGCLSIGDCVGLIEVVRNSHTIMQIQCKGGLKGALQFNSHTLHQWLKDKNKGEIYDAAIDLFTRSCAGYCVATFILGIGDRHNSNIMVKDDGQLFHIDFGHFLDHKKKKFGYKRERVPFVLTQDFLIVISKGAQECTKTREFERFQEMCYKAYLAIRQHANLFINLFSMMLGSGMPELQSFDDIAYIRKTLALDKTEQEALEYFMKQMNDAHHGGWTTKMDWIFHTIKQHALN
T2 sequence (O00329 with tags, fused parts or gaps limits assumed, species assumed): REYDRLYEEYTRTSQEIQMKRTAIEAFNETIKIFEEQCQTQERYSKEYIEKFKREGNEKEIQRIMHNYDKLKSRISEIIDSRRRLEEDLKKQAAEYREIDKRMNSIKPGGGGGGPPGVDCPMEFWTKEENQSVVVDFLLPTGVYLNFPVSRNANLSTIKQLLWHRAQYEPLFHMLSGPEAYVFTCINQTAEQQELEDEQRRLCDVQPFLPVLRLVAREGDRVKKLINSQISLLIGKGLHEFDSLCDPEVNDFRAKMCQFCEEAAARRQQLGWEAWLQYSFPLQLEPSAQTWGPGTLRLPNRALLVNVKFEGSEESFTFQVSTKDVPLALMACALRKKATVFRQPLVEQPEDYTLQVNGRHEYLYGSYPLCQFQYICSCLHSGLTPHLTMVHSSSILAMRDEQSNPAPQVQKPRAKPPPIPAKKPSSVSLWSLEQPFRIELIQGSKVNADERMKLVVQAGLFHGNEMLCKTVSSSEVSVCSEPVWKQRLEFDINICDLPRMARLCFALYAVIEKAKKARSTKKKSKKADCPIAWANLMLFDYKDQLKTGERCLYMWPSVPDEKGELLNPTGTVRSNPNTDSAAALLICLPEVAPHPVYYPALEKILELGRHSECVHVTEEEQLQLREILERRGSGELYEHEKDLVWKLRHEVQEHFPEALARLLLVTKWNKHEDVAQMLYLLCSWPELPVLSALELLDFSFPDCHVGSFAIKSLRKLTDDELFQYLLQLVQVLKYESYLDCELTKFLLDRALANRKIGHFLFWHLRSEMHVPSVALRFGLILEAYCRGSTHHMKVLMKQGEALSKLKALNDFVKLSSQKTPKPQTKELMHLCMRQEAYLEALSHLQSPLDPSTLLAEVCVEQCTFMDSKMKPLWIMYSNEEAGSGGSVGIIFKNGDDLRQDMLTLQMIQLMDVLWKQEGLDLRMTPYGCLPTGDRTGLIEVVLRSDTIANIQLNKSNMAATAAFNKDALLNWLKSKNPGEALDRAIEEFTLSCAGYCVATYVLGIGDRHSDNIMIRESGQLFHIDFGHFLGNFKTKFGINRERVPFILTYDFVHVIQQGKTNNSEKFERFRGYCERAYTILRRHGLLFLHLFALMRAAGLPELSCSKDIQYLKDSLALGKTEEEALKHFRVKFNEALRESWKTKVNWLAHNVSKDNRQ

**Q.** How did the pIC50 [1] turn out when `COc1ccc(-c2ccc3ncnc(-c4cccc(C(=O)N5CCN(C(C)=O)CC5)c4)c3c2)cn1` [Example 12] was run?
**A.** Its pIC50 is 6.97.

**Q.** `COc1ncc(-c2ccc3ncnc(-c4cncc(C(=O)N5CCN(C)C(C)(C)C5)c4)c3c2)cc1F` [Example 73] was tested. Which pIC50 [2] did it give?
**A.** Its pIC50 is 7.22.

**Q.** What about the pIC50 [3] of the same molecule?
**A.** Its pIC50 is > 8.52.

**Q.** What does the source list for `COc1ncc(-c2ccc3ncnc(-c4cncc(C(=O)N5CCN(C(C)=O)CC5)c4)c3c2)cc1F` [Example 51]?
**A.** pIC50 [2]: 6.93; pIC50 [3]: 8.46

**Q.** `CNc1ccc(-c2ccc3ncnc(-c4cccc(C(=O)N5CCN(C)CC5)c4)c3c2)cn1` [Example 41] was tested. Which pIC50 [2] did it give?
**A.** Its pIC50 is 6.15.

**Q.** What about the pIC50 [3] of the same molecule?
**A.** The pIC50 was 7.69.

**Q.** With `CNc1ncc(-c2ccc3ncnc(-c4cccc(C(=O)N5CCN(C)CC5)c4)c3c2)cc1C` [Example 40, {3-[6-(5-Methyl-6-methylamino-pyridin-3-yl)-quinazolin-4-yl]-phenyl}-(4-methyl-piperazin-1-yl)-methanone] as the molecule, how does the pIC50 [2] read?
**A.** The pIC50 was 6.57.

**Q.** And the pIC50 [3]?
**A.** Its pIC50 is 8.52.

**Q.** With `COc1ccc(-c2ccc3ncnc(-c4cncc(C(=O)N5CCNCC(F)(F)C5)c4)c3c2)cc1C(F)(F)F` [Example 83, (6,6-Difluoro-[1,4]diazepan-1-yl)-{5-[6-(4-methoxy-3-trifluoromethyl-phenyl)-quinazolin-4-yl]-pyridin-3-yl}-methanone] as the molecule, how does the pIC50 [2] read?
**A.** Its pIC50 is 6.04.

**Q.** And the pIC50 [3]?
**A.** The pIC50 was 7.68.

From US20140249139A1, “Quinazoline Derivatives” (NOVARTIS AG, priority 2011, published 2014)
